Laboratory results from patent US6750244B2, “Compounds active at a novel site on receptor-operated calcium channels useful for treatment of neurological disorders and diseases” (NPS Pharmaceuticals, Inc., priority 1993, dated 2004).
Entries after “also recorded” stand apart in the source; their conditions may differ. Where two headings read alike, the source gives them in different places.

Columns and labels:
locomotor activity = conditions: 32 mg/kg s.c.
Description: The first assay simply monitors locomotor activity during the first hour following peripheral (s.c. or i.p.) administration of test substance. […] Activity was quantified by counting the number of breaks in a phototube grid in a 60 min period.

[1] = biological target: voltage-sensitive Ca2+ channels (Rattus norvegicus, UniProt P22002); test: cell-based
Sequence of voltage-sensitive Ca2+ channels (P22002 whole entry): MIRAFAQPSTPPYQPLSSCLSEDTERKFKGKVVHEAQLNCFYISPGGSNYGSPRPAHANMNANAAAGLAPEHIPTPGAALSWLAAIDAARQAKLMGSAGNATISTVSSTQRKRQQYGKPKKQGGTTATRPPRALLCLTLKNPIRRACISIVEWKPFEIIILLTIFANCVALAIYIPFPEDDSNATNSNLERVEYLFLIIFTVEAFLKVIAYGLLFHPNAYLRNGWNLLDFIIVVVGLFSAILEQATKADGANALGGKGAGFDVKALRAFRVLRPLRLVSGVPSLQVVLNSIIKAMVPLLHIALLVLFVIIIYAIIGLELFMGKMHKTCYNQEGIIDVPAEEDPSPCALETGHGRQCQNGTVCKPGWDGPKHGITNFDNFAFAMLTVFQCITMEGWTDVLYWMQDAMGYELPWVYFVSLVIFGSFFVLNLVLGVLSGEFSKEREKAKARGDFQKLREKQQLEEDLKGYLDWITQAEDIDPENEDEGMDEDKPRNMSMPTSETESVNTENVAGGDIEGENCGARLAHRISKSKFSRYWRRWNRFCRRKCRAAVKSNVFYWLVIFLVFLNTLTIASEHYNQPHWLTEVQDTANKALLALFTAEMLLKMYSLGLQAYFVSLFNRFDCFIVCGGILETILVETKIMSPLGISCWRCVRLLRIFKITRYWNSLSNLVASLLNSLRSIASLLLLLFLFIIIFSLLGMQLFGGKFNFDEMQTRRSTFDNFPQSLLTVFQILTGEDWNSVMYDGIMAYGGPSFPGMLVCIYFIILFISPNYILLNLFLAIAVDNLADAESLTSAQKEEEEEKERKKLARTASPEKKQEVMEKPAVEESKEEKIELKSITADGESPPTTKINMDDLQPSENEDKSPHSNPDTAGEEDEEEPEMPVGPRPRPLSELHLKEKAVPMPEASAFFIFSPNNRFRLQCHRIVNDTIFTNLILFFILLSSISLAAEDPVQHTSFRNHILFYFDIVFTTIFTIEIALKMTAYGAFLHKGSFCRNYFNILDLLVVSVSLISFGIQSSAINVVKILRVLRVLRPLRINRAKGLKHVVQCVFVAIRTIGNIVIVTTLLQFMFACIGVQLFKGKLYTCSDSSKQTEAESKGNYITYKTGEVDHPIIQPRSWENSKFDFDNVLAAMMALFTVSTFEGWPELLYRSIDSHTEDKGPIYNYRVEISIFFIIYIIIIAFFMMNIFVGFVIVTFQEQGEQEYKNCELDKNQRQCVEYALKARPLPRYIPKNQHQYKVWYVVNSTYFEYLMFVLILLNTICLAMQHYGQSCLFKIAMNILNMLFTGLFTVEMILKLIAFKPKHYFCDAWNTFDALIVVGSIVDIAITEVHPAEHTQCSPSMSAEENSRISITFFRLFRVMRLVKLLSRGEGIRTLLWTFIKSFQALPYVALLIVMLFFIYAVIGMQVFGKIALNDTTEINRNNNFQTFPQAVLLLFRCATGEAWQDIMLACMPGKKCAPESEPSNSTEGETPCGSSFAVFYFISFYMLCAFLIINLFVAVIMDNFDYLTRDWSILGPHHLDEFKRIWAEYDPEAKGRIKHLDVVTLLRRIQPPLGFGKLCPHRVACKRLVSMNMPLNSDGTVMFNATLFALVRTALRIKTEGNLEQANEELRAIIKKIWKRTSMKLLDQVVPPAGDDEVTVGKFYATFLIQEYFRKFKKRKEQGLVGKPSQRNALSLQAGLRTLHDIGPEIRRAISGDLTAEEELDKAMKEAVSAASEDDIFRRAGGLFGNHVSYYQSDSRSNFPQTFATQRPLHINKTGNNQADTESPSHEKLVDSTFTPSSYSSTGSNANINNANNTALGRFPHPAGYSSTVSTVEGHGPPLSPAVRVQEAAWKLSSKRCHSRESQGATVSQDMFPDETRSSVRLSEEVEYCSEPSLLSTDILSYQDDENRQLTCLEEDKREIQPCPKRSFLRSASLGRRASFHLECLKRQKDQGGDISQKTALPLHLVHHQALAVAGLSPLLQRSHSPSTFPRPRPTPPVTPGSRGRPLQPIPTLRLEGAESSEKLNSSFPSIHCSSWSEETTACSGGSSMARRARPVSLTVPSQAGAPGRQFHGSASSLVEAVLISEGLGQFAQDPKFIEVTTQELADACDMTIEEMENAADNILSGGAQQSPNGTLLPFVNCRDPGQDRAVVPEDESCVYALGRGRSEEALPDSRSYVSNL
Description: (§1) The ability of arylalkylamines to inhibit dihydropyridine-sensitive Ca^2+ channels was examined in cerebellar granule cells and a rat aortic smooth muscle cell line, A7r5 cells.

[2] = biological target: NMDA receptor-ionophore complex (site labeled by [3H]MK-801); test: Inhibition of [3H]MK-801 binding in rat cortical/hippocampal washed membrane preparations; conditions: read-out: IC50 (μM) vs. [3H]MK-801; rat cortical/hippocampal washed membranes
[3] = system: forebrain ischemia (neuronal cell death); format: in vivo, gerbil; conditions: 10 mg/kg; 7 days post-ischemia
Description: Blood flow to the brain was interrupted for 7 minutes by clamping the carotid arteries. The test compounds were administered as a 'single dose given intraperitoneally (i.p.) 30 minutes after reinstating blood flow. During the course of these experiments, the core body temperature of the animals was maintained at 37° C. to prevent any hypothermic reaction. […]

NMDA receptors = conditions: patch clamp
[4] = system: mean arterial blood pressure; conditions: rats
thermal nociception [5] = format: in vivo, mice
neuronal vacuolization = conditions: i.p.
mouse cortical neurons = test: cells; conditions: Cortical neurone, read-out: IC50, prevention of NMDA-induced cell death
Description: The effective concentrations of NMDA receptor antagonists vary depending on the particular experimental conditions and the type of cell studied (cortical, hippocampal, striatal).

NMDA receptor [6] = test: Inhibition of NMDA/glycine-induced increases in intracellular calcium in cultured rat cerebellar granule cells (RCGC); format: cell-based
thermal nociception [7] = format: in vivo, rats; conditions: 0.3-3 nmol i.th.
Description: In this standard assay, the thermal nociceptive stimulus was 52° C. warm water with the latency to tail flick or withdrawal taken as the endpoint.

L-type calcium channel = system: T1, L-type calcium channel; test: Inhibition of KCl depolarization-induced increases in intracellular calcium in cultured rat cerebellar granule cells; format: cell-based
T1 construct: L-type calcium channel: estimated IC50, KCl depolarization-induced increases in intracellular calcium; other: cultured
Description: as §1

sound-induced seizures = test: Sound-induced seizures in Frings mice (reflex epilepsy); format: in vivo
[8] = system: formalin-induced flinching; format: in vivo, Sprague-Dawley rats; conditions: 0.3-10 nmol i.th.
focal cerebral ischemia = test: Middle cerebral artery occlusion, permanent, surgical ligation; format: in vivo, rat; conditions: single dose 30 mg/kg i.p. 30 minutes after occlusion; 24 hours
Description: In the first study using this stroke model, one cerebral artery was permanently occluded by surgical ligation. The test compounds were administered 30 minutes after the occlusion by a single intraperitoneal (i.p.) injection. During the course of these experiments, the core body temperature of the animals was maintained at 37° C. to prevent any hypothermic reaction. Brains were assessed histologically for neuronal cell loss 24 hours later. Infarct volumes were calculated using the area of histological pallor from 10 slides and integrating the distance between each successive section.

motor performance [9] = conditions: 32 mg/kg s.c.
Description: In this assay, animals are placed on a wire-holed grid suspended from a rotating metal bar which can be inverted. The animals are then scored for their ability to climb to the top or hang on to the grid. […] This assay provides an index of “behavioral disruption” that may result from ataxia, loss of the righting reflex, sedation, or muscle relaxation.

[10] = system: PCP-like discriminative stimulus effects; format: in vivo, rats
Description: In this assay, rats who have been trained to lever press for food reinforcement must select which of two levers in their cages is correct. The only stimulus they hive for selecting the correct lever is their ability to detect whether they received a PCP or vehicle injection After about two months of training, rats become very good at discriminating PCP from vehicle injections and can then be tested with other drugs to determine if they are discriminated as PCP. When tested in this procedure, other drugs which are known to produce a PCP-like intoxication substitute for PCP. These drugs include various PCP analogs such as ketamine and the noncompetitive NMDA receptor antagonist, MK-801.

[11] = system: acetic acid-induced writhing; format: in vivo, mice; conditions: i.p.
AMPA receptor = conditions: read-out: IC50 for the AMPA receptor-mediated response; rat hippocampal slices
Description: (§2) Glutamate-mediated transmission at synapses of Schaffer collateral fibers and CA1 pyramidal cells was measured in slices of rat brain containing the hippocampus. This assay measures electrophysiologically the postsynaptic depolarization caused by the presynaptic release of glutamate, and can readily distinguish synaptic transmission mediated by NMDA or AMPA receptors.

NMDA receptor [12] = conditions: rat hippocampal slices
Description: as §2

thermal nociception [13] = format: in vivo, rats; conditions: 0.3-3 nmol i.th.; remark: listed apart in the source
Description: In these experiments, a 52° C. hot plate was used as the nociceptive stimulus.

[14] = system: maximal electroshock-induced seizures; test: Maximal electroshock-induced seizures in mice; format: in vivo; conditions: for ED50: Mus musculus, mice
motor performance [15] = test: Acute motor impairment (rotorod) in mice
Description: (§3) In this assay, Frings and CF1 mice were injected with test compound and placed on a knurled rod which rotated at a speed of 6 rpm. The ability of the mice to maintain equilibrium for long periods of time was determined; those mice that were unable to maintain equilibrium on the rotorod for 1 min in each of 3 trials were considered impaired.

[16] = Acute motor impairment (rotorod) in mice; conditions: mouse, in vivo, ip
Description: as §3

[17] = system: PCP-like stereotypic behavior; test: PCP-like stereotypic behavior (hyperexcitability and head weaving) in rats; conditions: 30 mg/kg i.p.
Description: We investigated whether the arylalkylamines would elicit such behaviors.

[18] = system: delayed rectifier potassium channel; test: Inhibition of delayed rectifier potassium channel in cultured N1E-115 neuroblastoma cells; format: cell-based; conditions: read-out: Delayed rectifier potassium channel: estimated IC50
induction of LTP = system: induction of LTP; design: species or system rat; conditions: at 100 μM
[19] = system: central muscarinic cholinergic receptor; format: binding, rat
PBQ-elicited writhing = format: in vivo; conditions: 16 mg/kg i.p.
Description: In the first series of experiments, the animals were administered an unpleasant stimulus (2-phenyl-1,4-benzoquinone, PBQ) which elicits a writhing response (abdominal stretching). Typically, the number of writhes occurring in a 5 min observation period is recorded. […] Nonsteroidal antiinflammatory agents are likewise effective in this model.

N=C(N)NCCCC(N)C(=O)NCCCNCCCNCCCCCNC(=O)C(CC(N)=O)NC(=O)Cc1ccc(O)cc1O (centres unmarked) [Compound 1]
effect on locomotor activity (locomotor activity): did not elicit hyperactivity
IC50 [1]: 808 µM
IC50 [2]: 126 µM
reduction in neuronal death / protection in region CA1 of the hippocampus [3]: 23%
effect on responses to NMDA and kainate (NMDA receptors): blocked responses to NMDA at nanomolar concentrations without affecting the responses to kainate
Drop in Mean Arterial Blood Pressure ([4]; 1.5 μmoles/kg i.v.): 65 mm Hg at
Drop in Mean Arterial Blood Pressure: duration ([4]; 1.5 μmoles/kg i.v.): i.v., 60 min
increase in latency to foot licking (thermal nociception [5]; 4 mg/kg s.c.): 136%
increase in latency to jumping (thermal nociception [5]; 32 mg/kg s.c.): 360%
dose without neuronal vacuolization (neuronal vacuolization): 100 mg/kg
IC50 (mouse cortical neurons): 70 µM
IC50 (NMDA receptor [6]; read-out: IC50 against NMDA receptor-mediated increases in [Ca2+]i in cerebellar granule cells): 0.102 µM
analgesic effect, tail flick (52° C. warm water) (thermal nociception [7]): dose- and time-dependent analgesic effect
IC50 (L-type calcium channel; read-out: L-type calcium channel: estimated IC50, KCl depolarization-induced increases in intracellular calcium; cultured rat cerebellar granule cells): 257 µM
IC50, prevention of sound-induced seizures (sound-induced seizures; intracerebroventricular (i.c.v.) injection): 0.63 µg
IC50, prevention of sound-induced seizures (sound-induced seizures; intraperitoneal injection): 14.3 mg/kg
late-phase flinching, administered after the formalin ([8]; 10 min after formalin): significance was achieved only at the 10 nmol dose
flinching behaviors, pretreatment to formalin ([8]; 10 min prior to formalin): effectively inhibited both early- and late-phase flinching behaviors
protection against neuronal cell loss (focal cerebral ischemia): approximately 15%
motor performance in the inverted grid assay (motor performance [9]): did not lessen the ability of DBA/2 mice to right themselves
substitution for PCP ([10]; 1-30 mg/kg i.p.): did not substitute for PCP
IC50, inhibition of acetic acid-induced writhing [11]: 10 mg/kg
IC50 (AMPA receptor): 647 µM
Suppression of NMDA Receptor-Mediated Synaptic Transmission (concentration which suppresses) (NMDA receptor [12]): 10 to 30 µM
IC50 (NMDA receptor [12]; read-out: IC50 for the NMDA receptor-mediated response): 20 µM
antinociceptive effect, hot plate (thermal nociception [13]): dose- and time-dependent antinociceptive effects
effect against seizures elicited by maximal electroshock ([14]; CF1 mice, 4 μg i.c.v.): effective
motor impairment in CF1 mice (motor performance [15]; 4 μg i.c.v.): motor impairment
dose that had to be exceeded before motor toxicity was evident (motor performance [15]; Frings mice, i.c.v.): exceeded 1.56 μg
TD50 ([16]; Frings): 16.8 mg/kg

NCCC(c1ccccc1)c1ccccc1 [Compound 19, 3,3-diphenylpropylamine]
PCP-like stereotypic behavior (hyperexcitability and head weaving) [17]: no PCP-like stereotypic behavior
IC50 [18]: 1 to 10 µM
IC50 [2]: 2.1 µM
without effect on blood pressure at doses up to ([4]; s.c.): up to 100 mg/kg
analgesic activity in the hot-plate assay (thermal nociception [5]; 16 mg/kg i.p.): significant analgesic activity
IC50 (NMDA receptor [6]; NMDA/glycine-induced increases in intracellular calcium, cultured rat cerebellar granule cells, read-out: IC50 (μM) vs. NMDA): 0.435 µM
LTP Assay (block of the induction of LTP) (induction of LTP): did block; also recorded: block at 100
IC50 (L-type calcium channel; cultured rat cerebellar granule cells; read-out: L-type calcium channel: estimated IC50, KCl depolarization-induced increases in intracellular calcium): 10.2 µM
no generalization to PCP at doses up to the behaviorally active dose of ([10]; i.p., rats): ≤ 30 mg/kg
Suppression of NMDA Receptor-Mediated Synaptic Transmission (concentration which suppresses) (NMDA receptor [12]): 100 to 300 µM
Central muscarinic cholinergic receptor: percent block of [3H]QNB binding ([19]; at 0.1 μM): 4% at
Central muscarinic cholinergic receptor: percent block of [3H]QNB binding ([19]; at 10 μM): 0.174%
analgesic activity in the PBQ-induced writhing assay (PBQ-elicited writhing): significant analgesic activity
ED50 ([14]; ip): 26.4 mg/kg
ED50 ([14]; oral (p.o.)): 35 mg/kg
motor impairment (motor performance [15]; mice, 30 mg/kg p.o.): motor impairment
TD50 [16]: 43.8 mg/kg
